Measurements taken from US20210290576A1, “STRUCTURALLY MODIFIED FATTY ACIDS FOR IMPROVING GLYCEMIC CONTROL AND TREATING INFLAMMATORY BOWEL DISEASE” (NORTHSEA THERAPEUTICS B.V., priority 2018, published 2021).
Read-outs that look alike come from different tables or passages of the source.

How the values were obtained:
[1] = test system: ob/ob mice, rodent model of T2DM; test: Oral glucose (2 g/kg) tolerance test after 5 weeks of treatment in ob/ob mice; type: in vivo; settings: 15, 45 and 135 mg/kg bw/d
Experimental: Mice were fed a standard low-fat (7% w/w fat) diet. After 4-weeks, the mice were fasted for 4 hours and the effects of Compound A were assessed. Assessment of the effects of Compound A included basal levels of blood glucose, plasma insulin, HbA1c levels, and homeostatic model assessment of insulin resistance (HOMA-IR). HOMA-IR is an assessment of insulin resistance and is calculated by the following formula: fasting insulin (micro U/L)×fasting glucose […]/22.5.
After 5 weeks, an oral glucose (2 g/kg) tolerance test was performed after a 4 hour fast.

[2] = test system: plasma insulin; test: Plasma insulin at 24 h after OGTT in lean male SPD rats; type: in vivo, Sprague-Dawley (SPD) rats; settings: non-significant
Experimental: (§1) Evaluation of the Acute Effects of Compound a and Compound B Upon Active GLP-1 wconcentrations during an oral glucose tolerance test (OGTT) and at 24 h in lean male SPD Rats
(§2) To establish the acute effects of oral administration of Compound A and Compound B upon active GLP-1 and insulin concentrations, lean (about 300 g) male Sprague-Dawley (SPD) rats were divided into groups (n=6-8) and fed 74 and 84 mg/kg body weight of Compound A or Compound B respectively, either with or without concurrent administration of a dipeptidyl peptidase 4 (DPP-4) inhibitor 60 minutes prior to an oral glucose tolerance test (OGTT) as outlined below. Parallel groups receiving either corn oil alone (corn oil+vehicle, n=10) or corn oil and a DPP-4 inhibitor (“DPP-4 i”) (corn oil+(DPP-4 i), n=10) were included as controls. The DPP-4 inhibitor was linagliptin.
(§3) A second oral dose of 74 and 84 mg/kg bodyweight of Compound A or Compound B respectively was administered at 240 minutes and ad lib feeding was initiated. A second dose of DPP-4 inhibitor was administered at 480 mins prior to lights out. Blood samples were collected at 24 h for measurement of active GLP-1 and insulin. All values are mean, figures depict mean values (SEM).

[3] = test system: atherogenic lipids; settings: humans; cited from earlier work
[4] = test system: active GLP-1; test: Active GLP-1 during an oral glucose tolerance test (OGTT) and at 24 h in lean male SPD rats; type: in vivo, Sprague-Dawley (SPD) rats
Experimental: as §1, §2, §3

[5] = test system: ob/ob mice, T2DM rodent model; test: Glucose tolerance after 21-day treatment in high-fat diet fed ob/ob mice; type: in vivo; settings: 112 mg/kg once daily via diet, 21 days
Experimental: This study was carried out to assess the effects of chronic treatment with Compound B or Compound A on glucose tolerance in a T2DM rodent model.
For assessing the effects of Compound A, ob/ob mice were fed a high-fat diet (comprising 2% cholesterol, 40% fat (containing 18% trans-fatty acids), 20% fructose) for 15 weeks starting at age 5 weeks. […] After 21 days the mice received a 2 g/kg oral glucose load. After the oral glucose load, plasma glucose was measured at multiple time points from 0-240 minutes.

[6] = test system: atherogenic lipids; settings: APOE*3.CETP mice; cited from earlier work

CC/C=C\C/C=C\C/C=C\C/C=C\C/C=C\CCCCOC(CC)C(=O)O (stereo not shown) [Compound A, 2-(((5Z,8Z,11Z,14Z,17Z)-icosa-5,8,11,14,17-pentaen-1-yl)oxy)butanoic acid]
glucose levels in oral glucose tolerance test [1]: dose-dependent response in lowering glucose levels
increase of plasma insulin concentrations at 24 h versus corn oil+vehicle and corn oil+DPP4 inhibitor ([2]; compound alone): 25%
increase of plasma insulin concentrations at 24 h versus corn oil+vehicle and corn oil+DPP4 inhibitor ([2]; in combination with DPP4 inhibitor (linagliptin)): 25%
atherogenic lipids [3]: significantly reduce atherogenic lipids
active GLP-1 concentrations at 24 h versus corn oil+vehicle ([4]; in combination with DPP4 inhibitor (linagliptin), Compound A 74 mg/kg, Compound B 84 mg/kg, two oral doses): significantly (p<0.05) increased
glucose tolerance compared to vehicle ([5]; 2 g/kg oral glucose load): significantly improved glucose tolerance from 15 minutes through 90 minutes
AUC glucose ([5]; p<0.01): significantly reduced
atherogenic lipids [6]: significantly reduce atherogenic lipids

CC#CCn1c(N2CCC[C@@H](N)C2)nc2c1c(=O)n(Cc1nc(C)c3ccccc3n1)c(=O)n2C [DPP4 inhibitor, linagliptin, reference compound]
active GLP-1 (AUC 0-60 mins) versus corn oil alone ([4]; corn oil+DPP4 inhibitor alone): no significant effect
active GLP-1 concentrations at 24 h versus corn oil alone ([4]; corn oil+DPP4 inhibitor alone): no significant effect
